According to publication PMC8449059, “Structural and functional variation of chitin-binding domains of a lytic polysaccharide monooxygenase from Cellvibrio japonicus” (The Journal of Biological Chemistry, 2021):

Molecular target: T1, CjCBM5 (family 5 carbohydrate-binding module of CjLPMO10A) (Cellvibrio japonicus, UniProt B3PJ79)
T1 construct: gene cbp33A; isolated CBM5 domain, residues 251-309 of 397; extra N-terminal Met, C-terminal Ala + 6xHis tag kept; 15N-labelled; E. coli cytoplasmic expression (pNIC-CH)
T1 sequence (B3PJ79 entry or part of it): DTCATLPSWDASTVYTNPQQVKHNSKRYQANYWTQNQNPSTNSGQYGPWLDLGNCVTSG
Assay: NMR titration, […]-HSQC chemical shift perturbation
Conditions: 50 mM sodium phosphate, pH 7.0, 10% D2O; 70 uM 15N-labelled protein; average of W283, T284, Q285, Y296, G297

CC(=O)N[C@H]1[C@H](O[C@H]2[C@H](O)[C@@H](NC(C)=O)C(O[C@H]3[C@H](O)[C@@H](NC(C)=O)C(O[C@H]4[C@H](O)[C@@H](NC(C)=O)C(O[C@H]5[C@H](O)[C@@H](NC(C)=O)C(O[C@H]6[C@H](O)[C@@H](NC(C)=O)C(O)O[C@@H]6CO)O[C@@H]5CO)O[C@@H]4CO)O[C@@H]3CO)O[C@@H]2CO)O[C@H](CO)[C@@H](O)[C@@H]1O (stereo partly shown) [chitohexaose]
Kd: 2000 ± 1000 µM
